# Experimental data as given in patent EP0402852A1, “Irreversible bombesin antagonists” (priority 1989, dated 1990).
# Where two headings read alike, the source gives them in different places. Starred links: 1 amine or outer side, 2 acyl side, 3 side chain; linkers in the order of their positions; H or OH if unused. Non-standard residues stand in square brackets, D forms with d. Residues, ends and D or L forms follow the SMILES beside them. *: point of attachment. X2 = CC(C)C[C@@H](CN[C@@H](CC(C)C)C(N)=O)N*; Carbamoyl(2-ClEt,NO) = O=NN(CCCl)C(=O)*; X1 = O=C(c1ccc(N(CCCl)CCCl)cc1)*; pGlu = O=C1CC[C@@H](C(=O)O)N1; Suc = O=C(CCC(=O)[*:2])[*:1]; Nle = CCCC[C@H](N)C(=O)O; CH2Cl = ClC*
# Legend:
# bombesin receptors = biological target: T1, bombesin receptors (Mus musculus, UniProt P21729); assay: Binding affinity for the bombesin receptors on mouse Swiss 3T3 fibroblasts
# T1 construct: bombesin receptors was determined on mouse Swiss 3T3 fibroblasts; endogenous in cells; host or cells: mouse Swiss 3T3 fibroblasts
# Procedure: The binding affinity of the compounds of the present invention for the bombesin receptors was determined on mouse Swiss 3T3 fibroblasts (I. Zachary and E. Rozengurt (1985) Proc. Natl. Acad. Sci. USA, 82, 7616-7620) (Table 1).
# [1] = tested on: mouse Swiss 3T3 fibroblasts; assay: Mitogenesis: [H³]thymidine incorporation in quiescent, confluent Swiss 3T3 cells; format: cell-based; settings: for FOLD INCREASE OVER BASAL VALUE: [H³]thymidine incorporation, compound alone
# Procedure: The effect on mitogenesis was determined in quiescent and confluent Swiss 3T3 cells maintained in serum free medium (A.N.Corps et al (1985) Biochem J. 231, 781-785). In a first set of experiments, analogues are given alone or in combination with bombesin. In a second set of experiments, cells are pre-treated with the alkylating peptides, washed, left at 37°C for 24 hours and then challenged with bombesin. In both cases, DNA synthesis was evaluated as [H³]thymidine incorporation (Table 2).
# [2] = tested on: p115 protein associated with the bombesin receptor; assay: Phosphorylation of the p115 protein (activation of protein-tyrosin kinase); format: cell-based
# Procedure: Mitogenic effect of bombesin and its analogues were also evaluated as activation of the protein-tyrosin kinase that phosphorylates a 115 KD protein (p115) associated with the bombesin receptor complex (D. Cirillo et al. (1986) Mol.Cell. Biol. 6, 4641- 4649) (Table 3). In addition, exposure to these peptides in the 0.1-50 µM range was associated with significant reduction in the growth of SCLC cell lines (such as NCI-H345, NCI-N592, NCI-H128), as well as of prostatic carcinoma cell lines (such as DU145 and PC3).
# [3] = binding affinity on mouse Swiss 3T3 fibroblasts
# [4] = binding affinity on mouse Swiss 3T3 fibroblasts, read-out: ID₅₀
# T1 sequence (P21729 whole entry): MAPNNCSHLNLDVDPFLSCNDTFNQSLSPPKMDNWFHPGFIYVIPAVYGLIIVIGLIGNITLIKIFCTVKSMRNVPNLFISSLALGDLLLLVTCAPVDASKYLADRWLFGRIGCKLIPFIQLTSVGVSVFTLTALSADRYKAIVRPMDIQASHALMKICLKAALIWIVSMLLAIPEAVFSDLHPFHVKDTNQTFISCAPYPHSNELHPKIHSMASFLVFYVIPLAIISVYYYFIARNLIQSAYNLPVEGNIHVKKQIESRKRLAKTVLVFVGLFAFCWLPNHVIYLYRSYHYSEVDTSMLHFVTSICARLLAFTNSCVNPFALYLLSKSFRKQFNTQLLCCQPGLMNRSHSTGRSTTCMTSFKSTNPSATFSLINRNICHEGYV
compound,measurement,setting,value
4-(ClCH₂CH₂)₂NC₆H₄CO-Thr-Gln-Trp-Ala-Val-Gly-His(Dnp)-Leu-Met-NH₂ (TQWAVGH; N-mustard benzoyl; His(Dnp)-Leu-Met-NH2; printed: Thr-Gln-Trp-Ala-Val-Gly-His) [III],ID₅₀,bombesin receptors; [3],1815 ± 330 nM
same,% INHIBITION IN THE PRESENCE OF 25nM BBS,"[1]; A: analogues given in combination with BBS, 0.5µM",0%
same,% INHIBITION IN THE PRESENCE OF 25nM BBS,"[1]; A: analogues given in combination with BBS, 5 µM",0%
same,% INHIBITION IN THE PRESENCE OF 25nM BBS,"[1]; B: cells pre-treated with analogues, washed, left at 37°C for 24 h, then challenged with BBS, 0.5µM",51±11%
same,% INHIBITION IN THE PRESENCE OF 25nM BBS,"[1]; B: cells pre-treated with analogues, washed, left at 37°C for 24 h, then challenged with BBS, 5 µM",53+8%
same,FOLD INCREASE OVER BASAL VALUE,[1]; 0.5µM,2.3
same,FOLD INCREASE OVER BASAL VALUE,[1]; 5 µM,3.4
same,MINIMAL ACTIVE DOSE,[2],500 nM
"CSCC[C@H](NC(=O)[C@H](CC(C)C)NC(=O)CNC(=O)[C@@H](NC(=O)[C@H](C)NC(=O)[C@H](Cc1c[nH]c2ccccc12)NC(=O)[C@H](CCC(N)=O)NC(=O)[C@@H](NC(=O)c1ccc(N(CCCl)CCCl)cc1)[C@@H](C)O)C(C)C)C(N)=O [I, 4-(ClCH₂CH₂)₂NC₆H₄CO-Thr-Gln-Trp-Ala-Val-Gly-Leu-Met-NH₂] (X1-TQWAVGLM-NH2)",IC50,bombesin receptors,1360 ± 266 nM
"CCCC[C@H](NC(=O)[C@H](CC(C)C)NC(=O)CNC(=O)[C@@H](NC(=O)[C@H](C)NC(=O)[C@H](Cc1c[nH]c2ccccc12)NC(=O)[C@H](CCC(N)=O)NC(=O)[C@@H](NC(=O)c1ccc(N(CCCl)CCCl)cc1)[C@@H](C)O)C(C)C)C(N)=O [II, 4-(ClC₂CH₂)₂NC₆H₄CO-Thr-Gln-Trp-Ala-Val-Gly-Leu-Nle-NH₂] (X1-TQWAVGL[Nle]-NH2)",IC50,bombesin receptors,438 ± 111 nM
"CSCC[C@H](NC(=O)[C@H](CC(C)C)NC(=O)[C@H](Cc1c[nH]cn1)NC(=O)CNC(=O)[C@@H](NC(=O)[C@H](C)NC(=O)[C@H](Cc1c[nH]c2ccccc12)NC(=O)[C@H](CCC(N)=O)NC(=O)[C@@H](NC(=O)c1ccc(N(CCCl)CCCl)cc1)[C@@H](C)O)C(C)C)C(N)=O [IV, 4-(ClCH₂CH₂)₂NC₆H₄CO-Thr-Gln-Trp-Ala-Val-Gly-His-Leu-Met-NH₂]",IC50,bombesin receptors,0.7 ± 0.2 nM
"CCCC[C@H](NC(=O)[C@H](CC(C)C)NC(=O)CNC(=O)[C@@H](NC(=O)[C@H](C)NC(=O)[C@H](Cc1c[nH]c2ccccc12)NC(=O)[C@H](CCC(N)=O)NC(=O)[C@@H](NC(=O)N(CCCl)N=O)[C@@H](C)O)C(C)C)C(N)=O [V, ClCH₂CH₂N(NO)CO-Thr-Gln-Trp-Ala-Val-Gly-Leu-Nle-NH₂] ({Carbamoyl(2-ClEt,NO)}-TQWAVGL[Nle]-NH2)",IC50,bombesin receptors,1340 ± 199 nM
"CCCC[C@H](NC(=O)CCC(=O)N[C@H](C(=O)N[C@@H](CCC(N)=O)C(=O)N[C@@H](Cc1c[nH]c2ccccc12)C(=O)N[C@@H](C)C(=O)N[C@H](C(=O)NCC(=O)N[C@@H](CC(C)C)C(=O)N[C@@H](CCSC)C(N)=O)C(C)C)[C@@H](C)O)C(=O)CCl [VI, CH₃(CH₂)₃CH(COCH₂Cl)NHCO(CH₂)₂CO-Thr-Gln-Trp-Ala-Val-Gly-Leu-Met-NH₂] ({CH2Cl-Nle-Suc}-TQWAVGLM-NH2)",IC50,bombesin receptors; [4],648 ± 290 nM
"CC(C)C[C@@H](CN[C@@H](CC(C)C)C(N)=O)NC(=O)[C@H](Cc1cnc[nH]1)NC(=O)CNC(=O)[C@@H](NC(=O)[C@H](C)NC(=O)[C@H](Cc1c[nH]c2ccccc12)NC(=O)[C@H](CCC(N)=O)NC(=O)[C@H](CC(N)=O)NC(=O)CNC(=O)[C@H](CC(C)C)NC(=O)[C@H](CCCN=C(N)N)NC(=O)[C@H](CCC(N)=O)NC(=O)[C@@H]1CCC(=O)N1)C(C)C [[Leu¹³Ψ(CH₂-NH)Leu¹⁴]BBS, reference compound] ([pGlu]QRLGNQWAVGH-X2)",IC50,bombesin receptors,214 ± 30 nM
"Glp-Gln-Arg-Leu-Gly-Asn-Gln-Trp-Ala-Val-Gly-His-Leu-Met-NH₂ [BBS, reference compound]",ID₅₀,bombesin receptors; [3],12.6 ± 3.8 nM
same,FOLD INCREASE OVER BASAL VALUE,[1]; 5nM,3.0±1
same,MINIMAL ACTIVE DOSE,[2],3 nM
Spantide [reference compound],IC50,bombesin receptors; [4],11100 nM
same,MINIMAL ACTIVE DOSE,[2],> 10000 nM
